Measured values reported in patent US9937250B2, “Immunogenic tumor associated stromal cell antigen peptides and methods of their use” (University of Pittsburgh—Of the Commonwealth System of …, priority 2011, dated 2018).

Legend:
MC38 colon carcinoma = test: MC38 protection (prophylactic vaccination) model; format: in vivo, HHD mice; conditions: immunization days -14 and -7, tumor challenge day 0 (FIG. 9B)
Excerpt: FIGS. 9A-9B show a series of graphs illustrating induction of specific/protective CD8^+ T cells reactive against TASA as a consequence of DC/peptide-based vaccination. In FIG. 9A, HHD mice (five animals/cohort) were vaccinated twice (d-14, d-7) subcutaneously with PBS or with isologous DC.IL12 pulsed with PBS or synthetic peptides (Table 6) derived from the indicated TASA. In cases where more than 1 peptide was identified for a given target antigen, an equimolar pool of the indicated peptides (each 10 μM) was pulsed onto DC.IL12 and used for vaccination in the relevant cohort. One week after the second immunization, spleens were harvested and splenic CD8^+ T cells isolated using MACS-beads (Miltenyi). T cells were stimulated in vitro for 48 h using the HLA-A2^+ T2 cell line pulsed with relevant TASA vs. irrelevant HIV-nef190-198 ([…]; ref. 24) peptides. Cell-free supernatants were then recovered and IFN-γ levels by ELISA. Data are reported as mean+/−SD for triplicate ELISA determinations, and are representative of 3 independent experiments performed. *p<0.05 vs. HIV-nef control peptide responses. In FIG. 9B, HHD mice were vaccinated twice (days −14 and −7; right flank) subcutaneously with PBS or with isologous DC.IL12 pulsed with PBS or synthetic TASA peptides as indicated in FIG. 1A. In cases where more than 1 peptide is identified for a given target antigen, an equimolar pool of the indicated peptides (each 10 μM) was pulsed onto DC.IL12 and used for vaccination in the relevant cohort. One week after the booster vaccine (i.e. day zero), animals were challenged subcutaneously on their left flank with 2×10^6 MC38 colon carcinoma cells. Tumor growth was then monitored every 3-4 days through day 24. All data represent mean tumor area (in mm^2)+/−SD determined from 5 mice/cohort, and are representative of three independent experiments performed. *p<0.05 versus DC only on the indicated days.
Vaccine Experiments. For prophylactic experiments, HHD mice were immunized subcutaneously on the right flank with 100 μl PBS or PBS containing 10^6 syngenic DC.IL12 cells that had been untreated or pre-pulsed for 4 h at 37° C. with 10 μM synthetic peptide(s). Immunizations occurred on days −14 and −7, with mice subsequently receiving injections of MC38 (2×10^6) tumor cells in the left flank on d0. In all cases, treatment groups contained 5 mice per cohort. For analysis of tumor cellular composition in repeat experiments, MC38 tumors were isolated by surgical resection 10 days after tumor inoculation and prepared for fluorescence imaging, as described below. […] Mice were then untreated or treated with control, syngenic DC.IL12 or DC.IL12 (10^6 cells injected subcutaneously in the left flank on days 7 and 14) pulsed with synthetic TBVA peptides. In some assays, as indicated, in vivo antibody depletions (on days 6, 13 and 20 post-tumor inoculation to assess early involvement or on days 60 and 67 or 180 and 187 to assess late involvement) of protective CD4^+ T cells or CD8^+ T cells were performed and monitored as previously described (Zhao et al., Mol Ther., 19:805-814, 2011). In all cases, tumor size (area) was monitored every 3-4 days and is reported as mean+/−SD in mm^2.
The DLK1, EphA2, HBB, NG2, NRP1, NRP2, PDGFRβ, PSMA, RGS5, TEM1, VEGFR1 and VEGFR2 antigens were expressed in situ by blood vessel cells in the MC38 colon carcinoma TME (FIG. 14). Protection of HHD mice against a challenge with HLA-A2^neg MC38 tumor cells injected subcutaneously on day zero was assayed with immunization with TBVA-derived peptides on days −14 and −7. […]

[1] = test system: MC38 tumor microenvironment; test: Fluorescence imaging of MC38 tumor sections after prophylactic vaccination; format: in vivo, HHD mice; conditions: day 14 tumors; p<0.05 vs. untreated or DC.IL12/no peptide
Excerpt: Day 14 MC38 tumors were harvested from HHD mice that had been vaccinated as outlined in FIG. 9B with the indicated peptides (or control PBS or DC.IL12 alone=No peptide). In FIG. 10A, six-micron tissue sections were co-stained with anti-CD8 (green) and anti-NG2 (red) antibodies and imaged by fluorescence microscopy. Blue signal=nuclear counterstain using 4′,6-diamidino-2-phenylindole (DAPI). FIG. 10B provides a summary of the mean+/−SD number of CD8^+ cells per high-power field (HPF) in MC38 tumors isolated from control or vaccinated mice as depicted in FIG. 10A. In FIG. 10C, tissue sections were co-stained with anti-CD31 (green) and anti-NG2 (red) antibodies and imaged by fluorescence microscopy. Blue signal=nuclear counterstain using DAPI. In FIG. 10D, the mean+/−SD number of CD31^+ vessels per HPF of MC38 tumors in control or vaccinated mice are summarized Representative data is depicted from 1 of 3 independent experiments performed. *p<0.05 versus DC only or untreated control mice.
Fluorescence Imaging of Tumor Sections. Tumor tissue samples were prepared and 6 micron sections prepared as previously reported (Komita et al., Cancer Res., 68:8076-8084, 2008). The following Abs were used: (for T cell analyses), rabbit anti-mouse NG2 (Millipore, Bedford, Mass.) and alexa488-conjugated anti-CD4 or -CD8β antibodies or matching isotype controls (all from BD-Biosciences); (for vascular analyses), rat anti-mouse CD31 (BD-Biosciences) and rabbit anti-mouse NG2 (Millipore) Abs; (for TBVA), rat anti-mouse CD31 (BD-Biosciences) and guinea pig anti-mouse NG2 Abs, along with anti-TBVA as described in Example 1. Imaging was performed using an Olympus Fluoview 500 Confocal microscope (Olympus America, Center Valley, Pa.).
Protective vaccines incorporating TBVA peptides promote enhanced infiltration of the TME by CD8^+ T cells in association with an inhibition of tumor vascularity. MC38 tumor lesions from all cohorts of animals with evidence of disease on day 14 (post-tumor inoculation) were isolated and immunofluorescence microscopy on tumor sections was performed. […] In marked contrast, CD4^+ T cell infiltration in the TME was sparse and the data were indistinguishable when comparing control vs. vaccinated mice (FIG. 17). […] Correlative analyses indicated an association between the anti-tumor efficacy of vaccines and their ability to promote CD8^+ T cell infiltration and reduced vascularity in the TME (FIG. 16).

Substance: EphA2: EphA2-derived peptide 883-891 pulsed onto DC or DC.IL12 (TLADFDPRV; listed as Homo sapiens)
- Protection against HLA-A2neg MC38 tumor challenge (MC38 colon carcinoma): effective in preventing HLA-A2^neg MC38 tumor establishment or they resulted in the regression of tumors
- Suppression in CD31+ vessel counts in the MC38 TME [1]: greatest degree of suppression in CD31^+ vessel counts

Substance: RGS5: RGS5-derived peptide 5-13 pulsed onto DC or DC.IL12 (LAALPHSCL; listed as Homo sapiens)
- Protection against HLA-A2neg MC38 tumor challenge (MC38 colon carcinoma): effective in preventing HLA-A2^neg MC38 tumor establishment or they resulted in the regression of tumors
- Suppression in CD31+ vessel counts in the MC38 TME [1]: greatest degree of suppression in CD31^+ vessel counts

Substance: TEM1: TEM1-derived peptide 691-700 pulsed onto DC or DC.IL12 (LLVPTCVFLV; listed as Homo sapiens)
- Protection against HLA-A2neg MC38 tumor challenge (MC38 colon carcinoma): effective in preventing HLA-A2^neg MC38 tumor establishment or they resulted in the regression of tumors
- Suppression in CD31+ vessel counts in the MC38 TME [1]: greatest degree of suppression in CD31^+ vessel counts
